# Laboratory results: patent US8835112B2, “Cell transdifferentiation into brown adipocytes” (Miami University, priority 2010, dated 2014)
# System: HB-EGF and ADAM 12S co-expressing cells
# Assay: Inhibition of adipogenesis by KB-R7785 (Oil Red O staining, morphology)
# Format: cell-based, mouse
# Procedure: Cells were grown in the 60 mm culture dishes (Corning). After reaching a cell confluence of 50-70%, the cells were washed with 1.0 ml of PBS for three times, fixed with 1.0 ml of 10% formalin for 60 minutes at room temperature. Oil Red O stock stain solution was prepared by mixing 0.3 g oil red O in 100 ml of isopropanol overnight at room temperature and filtered by using Whatman #2 filter papers. The formalin was removed and the cells were washed with deionized water. The culture dishes were aspirated and added with 1.0 ml of 60% isopropanol working solution to incubate 5 minutes at room temperature. Oil Red O working solution was prepared by diluting 30 ml of the stock stain with 20 ml of distilled water, filtered with Whatman #1 filter papers into a Coplin jar, and covered with a lid immediately. The 60% working isopropanol was removed and the culture dishes were filled with 1.0 ml working solution of Oil Red O, incubated for 5 minutes at room temperature. The cells were rinsed with deionized water until fluid becomes clear, and counterstained with 1 ml of hematoxylin for 1 minute at room temperature. The hematoxylin was then removed from the wells, and the cells were rinsed with deionized water and imaged under a microscope (Olympus). […]
structure (smiles),measurement,setting,value
"CNC(=O)[C@@H](NC(=O)[C@H](CC(C)C)[C@H](C)C(=O)NO)c1ccccc1 [KB-R7785, [4-(N-hydroxyamino)-2R-isobutyl-3S-methylsuccinyl]-L-phenylglycine-N-methylamide]",Reversal of brown adipocytes / adipocyte morphology,"KB-R7785 10 μM, over 4 weeks, mouse fibroblasts stably transfected with ADAM 12S and HB-EGF",returned the brown adipocytes to mouse fibroblasts
same,Oil Red O staining after incubation with inhibitor,"KB-R7785 20 μM in culture media, 3 weeks incubation, cells positive for Oil Red O before",lack Oil Red O staining
